Activity calls are given as the source filed them. The rule behind the calls is not given here. Numbered stars: 1 amine (or outer) side, 2 acyl side, 3 side chain; on linkers, the order of the positions; unused ones are H or OH. Bridge positions count the residues as written; N and C are the ends. Square brackets hold non-standard residues; d marks the D form. Peptide text beside a SMILES is read from it. I, II: the chains in the order shown. ξ: configuration not given here. X1 = O=C([C@H](Cc1c[nH]c2ccccc12)N(c1ccc([N+](=O)[O-])c2nonc12)[*:1])[*:2]; ξN = NC(=O)CC(N)C(=O)O
Columns and labels:
BEAS-2B = experiment: Induction of apoptosis in human BEAS-2B cells assessed as reduction in viable cells at 15 uM measured after 24 hrs by Annexin V-FITC/propidium iodide staining based flow cytometry; assay type: toxicity, cell-based
HepG2 [1] = experiment: Cytotoxicity against human HepG2 cells assessed as cell viability at 30 uM measured after 24 hrs by CCK-8 assay relative to control; assay type: functional; details: read-out: Activity
A549 [2] = experiment: Cytotoxicity against human A549 cells assessed as reduction in cell viability measured after 24 hrs by CCK-8 assay; assay type: functional, cell-based; details: for IC50: A549, 24 h
A549 [3] = experiment: Cytotoxicity against human A549 cells assessed as cell viability at 30 uM measured after 24 hrs by CCK-8 assay relative to control; assay type: functional; details: read-out: Activity
[4] = Cytotoxicity against human L02 cells assessed as reduction in cell viability measured after 24 hrs by CCK-8 assay; assay type: toxicity, cell-based
L02 = experiment: Induction of apoptosis in human L02 cells assessed as reduction in viable cells at 15 uM measured after 24 hrs by Annexin V-FITC/propidium iodide staining based flow cytometry; assay type: toxicity, cell-based; details: l02, 24 h
HepG2 [5] = experiment: Cytotoxicity against human HepG2 cells assessed as reduction in cell viability measured after 24 hrs by CCK-8 assay; assay type: functional, cell-based; details: for IC50: HepG2, 24 h
[6] = Cytotoxicity against human BEAS-2B cells assessed as reduction in cell viability measured after 24 hrs by CCK-8 assay; assay type: toxicity, cell-based
A549 [7] = experiment: Induction of apoptosis in human A549 cells assessed as viable cells at 15 uM measured after 24 hrs by Annexin V-FITC/propidium iodide staining based flow cytometry relative to control; assay type: functional; details: read-out: Activity
HepG2 [8] = experiment: Induction of apoptosis in human HepG2 cells assessed as viable cells at 15 uM measured after 24 hrs by Annexin V-FITC/propidium iodide staining based flow cytometry relative to control; assay type: functional; details: read-out: Activity
A549 [9] = experiment: Induction of cell membrane disruption in human A549 cells assessed as increase in LDH release at 15 uM measured after 1 hr by LDH releasing reagent based assay
A549 [10] = experiment: Induction of apoptosis in human A549 cells assessed as increase in late apoptotic cells at 15 uM measured after 24 hrs by Annexin V-FITC/propidium iodide staining based flow cytometry; assay type: functional, cell-based
HepG2 [11] = experiment: Induction of apoptosis in human HepG2 cells assessed as increase in late apoptotic cells at 15 uM measured after 24 hrs by Annexin V-FITC/propidium iodide staining based flow cytometry; assay type: functional, cell-based
HepG2 [12] = experiment: Induction of morphological changes in human HepG2 cells assessed as decrease in cell number at 15 uM measured after 24 hrs by high-throughput microscopy; assay type: functional, cell-based
HepG2 [13] = experiment: Induction of apoptosis in human HepG2 cells assessed as increase in necrotic cells at 15 uM measured after 24 hrs by Annexin V-FITC/propidium iodide staining based flow cytometry; assay type: functional, cell-based
HepG2 [14] = experiment: Induction of morphological changes in human HepG2 cells assessed as appearance of abnormal cell morphology at 15 uM measured after 24 hrs by high-throughput microscopy; assay type: functional, cell-based
A549 [15] = experiment: Induction of apoptosis in human A549 cells assessed as increase in necrotic cells at 15 uM measured after 24 hrs by Annexin V-FITC/propidium iodide staining based flow cytometry; assay type: functional, cell-based
HepG2 [16] = experiment: Induction of cell membrane disruption in human HepG2 cells assessed as increase in LDH release at 15 uM measured after 1 hr by LDH releasing reagent based assay
[17] = Drug uptake in human A549 cells at 15 uM measured after 1 hr by Hoechst 33258 staining based confocal laser scanning microscopy; assay type: ADME, cell-based; details: a549, 1 h
[18] = Drug uptake in human L02 cells at 15 uM measured after 1 hr by Hoechst 33258 staining based flow cyotmetry; assay type: ADME, cell-based; details: l02, 1 h
[19] = Drug uptake in human HepG2 cells at 15 uM measured after 1 hr by Hoechst 33258 staining based flow cyotmetry; assay type: ADME, cell-based; details: hepg2, 1 h
[20] = Drug uptake in human BEAS-2B cells at 15 uM measured after 1 hr by Hoechst 33258 staining based confocal laser scanning microscopy; assay type: ADME, cell-based
[21] = Drug uptake in human A549 cells at 15 uM measured after 1 hr by Hoechst 33258 staining based flow cyotmetry; assay type: ADME, cell-based; details: a549, 1 h
[22] = Drug uptake in human BEAS-2B cells at 15 uM measured after 1 hr by Hoechst 33258 staining based flow cyotmetry; assay type: ADME, cell-based
[23] = Drug uptake in human HepG2 cells at 15 uM measured after 1 hr by Hoechst 33258 staining based confocal laser scanning microscopy; assay type: ADME, cell-based; details: hepg2, 1 h
[24] = Drug uptake in human L02 cells at 15 uM measured after 1 hr by Hoechst 33258 staining based confocal laser scanning microscopy; assay type: ADME, cell-based; details: l02, 1 h

Molecule	Activity (BEAS-2B)	IC50 (A549 [2])	IC50 at 24 h [4]	Activity (L02)	IC50 (HepG2 [5])	IC50 at 24 h [6]	Activity (A549 [9])	Activity (A549 [10])	Activity (HepG2 [11])	Activity (HepG2 [12])	Activity (HepG2 [13])	Activity (HepG2 [14])	Activity (A549 [15])	Activity (HepG2 [16])	other results
N=C(N)NCCC[C@H](NC(=O)[C@H](CCCNC(=N)N)NC(=O)[C@H](CCCNC(=N)N)NC(=O)[C@H](CCCNC(=N)N)NC(=O)[C@H](CCCNC(=N)N)NC(=O)[C@H](CCCNC(=N)N)NC(=O)[C@H](CCCNC(=N)N)NC(=O)[C@H](CCCNC(=N)N)NC(=O)[C@@H](N)CCCNC(=N)N)C(=O)O	Non-Toxic	> 100 µM	> 100 µM	Non-Toxic	> 100 µM	> 100 µM									viability at 30 µM (HepG2 [1]): > 90%; viability at 30 µM (A549 [3]): > 90%; viability at 15 µM (A549 [7]): > 80%; viability at 15 µM (HepG2 [8]): > 80%
N=C(N)NCCC[C@H](NC(=O)[C@H](CCCNC(=N)N)NC(=O)[C@H](CCCNC(=N)N)NC(=O)[C@H](CCC(N)=O)NC(=O)[C@H](CCCNC(=N)N)NC(=O)[C@H](CCCNC(=N)N)NC(=O)[C@H](CCCCN)NC(=O)[C@H](CCCCN)NC(=O)[C@H](CCCNC(=N)N)NC(=O)CNC(=O)[C@@H](N)Cc1ccc(O)cc1)C(=O)O	Non-Toxic	> 100 µM	> 100 µM	Non-Toxic	> 100 µM	> 100 µM									viability at 30 µM (HepG2 [1]): > 90%; viability at 30 µM (A549 [3]): > 90%; viability at 15 µM (A549 [7]): > 80%; viability at 15 µM (HepG2 [8]): > 80%
CC(C)C[C@H](NC(=O)[C@H](CCCCN)NC(=O)CNC(=O)[C@H](CC(C)C)NC(=O)[C@@H](NC(=O)[C@@H](NC(=O)[C@H](CC(C)C)NC(=O)[C@H](CCC(=O)O)NC(=O)[C@@H](N)Cc1c[nH]c2ccccc12)C(C)C)C(C)C)C(=O)O (H-WELVVLGKL-OH)	Non-Toxic	90 µM		Non-Toxic											
CC(C)C[C@H](NC(=O)[C@H](CCCCN)NC(=O)CNC(=O)[C@H](CC(C)C)NC(=O)[C@@H](NC(=O)[C@@H](NC(=O)[C@H](CC(C)C)NC(=O)[C@H](CCC(=O)O)NC(=O)[C@@H](N)Cc1c[nH]c2ccccc12)C(C)C)C(C)C)C(=O)N[C@@H](CC(C)C)C(=O)N[C@@H](CC(C)C)C(=O)N[C@@H](Cc1c[nH]cn1)C(=O)N[C@@H](Cc1c[nH]cn1)C(=O)N[C@@H](CC(C)C)C(=O)N[C@@H](CC(C)C)C(=O)N[C@@H](Cc1c[nH]cn1)C(=O)N[C@@H](Cc1c[nH]cn1)C(=O)N[C@@H](CC(C)C)C(=O)N[C@@H](CC(C)C)C(=O)N[C@@H](Cc1c[nH]cn1)C(=O)N[C@@H](Cc1c[nH]cn1)C(=O)N[C@@H](CCCNC(=N)N)C(=O)N[C@@H](CCCNC(=N)N)C(=O)N[C@@H](CCCNC(=N)N)C(=O)N[C@@H](CCCNC(=N)N)C(=O)N[C@@H](CCCNC(=N)N)C(=O)N[C@@H](CCCNC(=N)N)C(=O)N[C@@H](CCCNC(=N)N)C(=O)N[C@@H](CCCNC(=N)N)C(=O)N[C@@H](CCCNC(=N)N)C(=O)O (H-WELVVLGKLLLHHLLHHLLHHRRRRRRRRR-OH)	Non-Toxic	10.5 µM	15.6 µM	Non-Toxic	10.1 µM	18.5 µM	Active	Active	Active	Active	Active	Active	Active	Active	
CC(C)C[C@H](NC(=O)[C@H](CCCCN)NC(=O)CNC(=O)[C@H](CC(C)C)NC(=O)[C@@H](NC(=O)[C@@H](NC(=O)[C@H](CC(C)C)NC(=O)[C@H](CCC(=O)O)NC(=O)[C@@H](N)Cc1c[nH]c2ccccc12)C(C)C)C(C)C)C(=O)N[C@@H](CCCNC(=N)N)C(=O)N[C@@H](CCCNC(=N)N)C(=O)N[C@@H](CCCNC(=N)N)C(=O)N[C@@H](CCCNC(=N)N)C(=O)N[C@@H](CCCNC(=N)N)C(=O)N[C@@H](CCCNC(=N)N)C(=O)N[C@@H](CCCNC(=N)N)C(=O)N[C@@H](CCCNC(=N)N)C(=O)N[C@@H](CCCNC(=N)N)C(=O)O (H-WELVVLGKLRRRRRRRRR-OH)	Non-Toxic	17.3 µM	21.6 µM	Non-Toxic	14.4 µM	22.8 µM	Active	Active	Active	Active	Active	Active	Active	Active	Activity (A549 [2]; DDE = dose-dependent effect): Dde; Activity (HepG2 [5]; DDE = dose-dependent effect): Dde
CC(C)C[C@H](NC(=O)[C@H](CCCCN)NC(=O)CNC(=O)[C@H](CC(C)C)NC(=O)[C@@H](NC(=O)[C@@H](NC(=O)[C@H](CC(C)C)NC(=O)[C@H](CCC(=O)O)NC(=O)[C@H](Cc1c[nH]c2ccccc12)Nc1ccc([N+](=O)[O-])c2nonc12)C(C)C)C(C)C)C(=O)N[C@@H](CC(C)C)C(=O)N[C@@H](CC(C)C)C(=O)N[C@@H](Cc1c[nH]cn1)C(=O)N[C@@H](Cc1c[nH]cn1)C(=O)N[C@@H](CC(C)C)C(=O)N[C@@H](CC(C)C)C(=O)N[C@@H](Cc1c[nH]cn1)C(=O)N[C@@H](Cc1c[nH]cn1)C(=O)N[C@@H](CC(C)C)C(=O)N[C@@H](CC(C)C)C(=O)N[C@@H](Cc1c[nH]cn1)C(=O)N[C@@H](Cc1c[nH]cn1)C(=O)N[C@@H](CCCNC(=N)N)C(=O)N[C@@H](CCCNC(=N)N)C(=O)N[C@@H](CCCNC(=N)N)C(=O)N[C@@H](CCCNC(=N)N)C(=O)N[C@@H](CCCNC(=N)N)C(=O)N[C@@H](CCCNC(=N)N)C(=O)N[C@@H](CCCNC(=N)N)C(=O)N[C@@H](CCCNC(=N)N)C(=O)N[C@@H](CCCNC(=N)N)C(=O)O (H-[X1]ELVVLGKLLLHHLLHHLLHHRRRRRRRRR-OH)															Drug uptake [17]: Active; Drug uptake [18]: Active; Drug uptake [19]: Active; Drug uptake [20]: Active; Drug uptake [21]: Active; Drug uptake [22]: Active; Drug uptake [23]: Active; Drug uptake [24]: Active
I: H-WELVVLGKLGLRKRLRKFRNKIKEK / II: H-GLRKRLRKFR[ξN]KIKEK-OH (amide I:C-II:4)	Non-Toxic	13.1 µM	18.4 µM	Non-Toxic	13.2 µM	19.8 µM	Active	Active	Active	Active	Active	Active	Active	Active	

Source: ChEMBL document CHEMBL5120831, “Pep5-based antitumor peptides containing multifunctional fragments with enhanced activity and synergistic effect” (Eur J Med Chem, 2022)
